Among the data in patent publication EP4206196A1, “PYRIMIDINE SUBSTITUTED DERIVATIVES AS TYK2 INHIBITORS” (Almirall S.A., priority 2021, dated 2023) are Kd and IC50 values, retold here.

Assay [1] deals with T1, TYK2 (JH2domain-pseudokinase) (Homo sapiens, UniProt P29597).
T1 construct: TYK2 (JH2domain-pseudokinase)-tagged T7 phage strains were prepared in an E. coli host derived from the BL21 strain; made in house; host or cells: E. coli BL21-derived host (T7 phage) or HEK-293 cells
Description: TYK2 JH2 domain binding assay (KINOMEscan). In a few lines:
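Kd values come from nonlinear least-squares fits of 11-point 3-fold dilutions (mostly 30,000 nM top, lowered when Kd fell below 0.5 nM). Test compound competed with bead-bound biotinylated ligand for qPCR-tagged TYK2 pseudokinase (JH2) domain, shaken 1 h at room temperature, with about 1% final DMSO.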

For assay [2], the system named is STAT1/3 through TYK2/JAK1. Description: IFNa induced STAT phosphorylation in HEK293 cells (SIE-bla reporter gene). The assay is classed as cell-based. The note with it: HEK293T-sie-bla cells, IFNa at EC80, 4 hours, read-out: Inhibition of IFNa induced STAT phosphorylation HEK293 cells IC50. The gist of the method:
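Read-out was FRET from a β-lactamase reporter under a SIE promoter in HEK293T cells, with substrate added after a 4 h, 37°C co-incubation of compound and EC80 IFNa and left overnight in the dark. Compounds ran as 10-point 1/5 dilutions at 0.1% final DMSO; four-parameter log fit gave IC50.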
On the technique in general: In a reporter assay the amount or activity of a reporter protein is the signal.

What is called pKd is −log10 of the Kd, conventionally taken in molar units. The low end stands for a large Kd, the high end for a small Kd. A word on the pIC50: it is the IC50 on a negative log10 scale, so that one unit is a factor of ten.

pIC50, pKd: −log10 of the molar value. Where two headings read alike, the source gives them in different places. Where only a bound is given, the exact number is not on record here.

T1 sequence (P29597 589-875 limits assumed): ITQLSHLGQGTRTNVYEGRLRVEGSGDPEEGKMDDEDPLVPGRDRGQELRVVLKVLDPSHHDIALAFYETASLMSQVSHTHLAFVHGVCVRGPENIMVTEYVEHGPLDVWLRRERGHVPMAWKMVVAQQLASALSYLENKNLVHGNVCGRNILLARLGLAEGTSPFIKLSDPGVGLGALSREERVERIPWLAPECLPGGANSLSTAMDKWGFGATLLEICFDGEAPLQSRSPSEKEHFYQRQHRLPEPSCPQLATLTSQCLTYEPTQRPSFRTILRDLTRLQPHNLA

Regarding `Cc1ccc(Nc2cc(Nc3ncc(-c4cnn(C)c4C)cc3N(C)S(C)(=O)=O)ncn2)nn1` [Example 158, N-[5-(1,5-dimethylpyrazol-4-yl)-2-[[6-[(6-methylpyridazin-3-yl)amino]pyrimidin-4-yl]amino]-3-pyridyl]-N-methyl-methanesulfonamide], the pKd in assay [1] is over 9.70. Further, the pIC50 in assay [2] (Homo sapiens, HEK293) was 7.00 to 8.00.
For the compound `COc1c(-c2noc(C)n2)ccnc1Nc1cc(Nc2cc(C)nc(C)n2)ncn1` [Example 159, 4-N-(2,6-dimethylpyrimidin-4-yl)-6-N-[3-methoxy-4-(5-methyl-1,2,4-oxadiazol-3-yl)pyridin-2-yl]pyrimidine-4,6-diamine], in assay [1], the pKd was over 9.70. Also, the pIC50 in assay [2] (Homo sapiens, HEK293) was over 8.00.
The matching figures for `Cc1c(-c2cnc(Nc3cc(NC(=O)[C@H]4C[C@H]4F)ncn3)c(N(C)S(C)(=O)=O)c2)cnn1C` [Example 160, (1R,2R)-N-[6-[[5-(1,5-dimethylpyrazol-4-yl)-3-[methyl(methylsulfonyl)amino]-2-pyridyl]amino]pyrimidin-4-yl]-2-fluoro-cyclopropanecarboxamide]: over 9.70 and 7.00 to 8.00.
In assay [1], `Cc1c(-c2cnc(Nc3cc(NC(=O)C4CC4)ncn3)c(P(C)(C)=O)c2)cnn1C` [Example 161, N-[6-[[3-dimethylphosphoryl-5-(1,5-dimethylpyrazol-4-yl)-2-pyridyl]amino]pyrimidin-4-yl]cyclopropanecarboxamide] gave a pKd of over 9.70. The pIC50 in assay [2] (Homo sapiens, HEK293) was 7.00 to 8.00.
Turning to `Cc1cc(Nc2cc(Nc3nc(C)c(-c4cnn(C)c4)cc3N(C)S(C)(=O)=O)ncn2)ncn1` [Example 162, N-methyl-N-[6-methyl-5-(1-methylpyrazol-4-yl)-2-[[6-[(6-methylpyrimidin-4-yl)amino]pyrimidin-4-yl]amino]-3-pyridyl]methanesulfonamide], in assay [1], the pKd was over 9.70. Besides, in assay [2] (Homo sapiens, HEK293), the pIC50 is over 8.00.
In turn, `Cc1cc(Nc2cc(Nc3nc(C)c(-c4cnn(C)c4C)cc3N(C)S(C)(=O)=O)ncn2)ncn1` [Example 163, N-[5-(1,5-dimethylpyrazol-4-yl)-6-methyl-2-[[6-[(6-methylpyrimidin-4-yl)amino]pyrimidin-4-yl]amino]-3-pyridyl]-N-methyl-methanesulfonamide] gave a pKd in assay [1] of over 9.70. In addition, in assay [2] (Homo sapiens, HEK293), the pIC50 was over 8.00.
`CN=S(C)(=O)c1cccnc1Nc1cc(Nc2cc(C)nc(C)n2)ncn1` (centres unmarked) [Example 164, N4-(2,6-dimethylpyrimidin-4-yl)-N6-[3-(N,S-dimethylsulfonimidoyl)-2-pyridyl]pyrimidine-4,6-diamine] had a pKd in assay [1] of over 9.70. Also, in assay [2] (Homo sapiens, HEK293), the pIC50 was 7.00 to 8.00.
In the case of `COc1cc(-c2cnn(C)c2)c(C)nc1Nc1cc(Nc2cc(C)ncn2)ncn1` [Example 165, N4-[3-methoxy-6-methyl-5-(1-methylpyrazol-4-yl)-2-pyridyl]-N6-(6-methylpyrimidin-4-yl)pyrimidine-4,6-diamine], the pKd in assay [1] was 9.00 to 9.70. Besides, the pIC50 in assay [2] (Homo sapiens, HEK293) was 6.00 to 7.00.
The matching figures for `Cc1cc(Nc2cc(Nc3ncc(C4CCCCO4)cc3N(C)S(C)(=O)=O)ncn2)nc(C)n1` (centres unmarked) [Example 167, N-[2-[[6-[(2,6-dimethylpyrimidin-4-yl)amino]pyrimidin-4-yl]amino]-5-tetrahydropyran-2-yl-3-pyridyl]-N-methyl-methanesulfonamide]: over 9.70 and over 8.00.
In assay [1], `CN=S(C)(=O)c1cc(-c2cnn(C)c2C)cnc1Nc1cc(Nc2cc(C)nc(C)n2)ncn1` (centres unmarked) [Example 168, N6-[5-(1,5-dimethylpyrazol-4-yl)-3-(N,S-dimethylsulfonimidoyl)-2-pyridyl]-N4-(2,6-dimethylpyrimidin-4-yl)pyrimidine-4,6-diamine] had a pKd of over 9.70. Also, the pIC50 in assay [2] (Homo sapiens, HEK293) is over 8.00.
The matching figures for `COCCn1cnc(-c2ccnc(Nc3cc(Nc4cc(C)nc(C)n4)ncn3)c2OC)n1` [Example 169, N6-(2,6-dimethylpyrimidin-4-yl)-N4-[3-methoxy-4-[1-(2-methoxyethyl)-1,2,4-triazol-3-yl]-2-pyridyl]pyrimidine-4,6-diamine]: over 9.70 and 7.00 to 8.00.
The matching figures for `Cc1cc(Nc2cc(Nc3ncc(-c4ocnc4C)cc3N(C)S(C)(=O)=O)ncn2)nc(C)n1` [Example 170, N-[2-[[6-[(2,6-dimethylpyrimidin-4-yl)amino]pyrimidin-4-yl]amino]-5-(4-methyl-1,3-oxazol-5-yl)pyridin-3-yl]-N-methylmethanesulfonamide]: over 9.70 and 7.00 to 8.00.
On to `Cc1cc(Nc2cc(Nc3ncc(C4CC4)cc3P(C)(C)=O)ncn2)nc(C)n1` [Example 171, 4-N-(5-cyclopropyl-3-dimethylphosphorylpyridin-2-yl)-6-N-(2,6-dimethylpyrimidin-4-yl)pyrimidine-4,6-diamine], for which the pKd in assay [1] was over 9.70. The pIC50 in assay [2] (Homo sapiens, HEK293) was 7.00 to 8.00.
For the compound `Cc1cc(Nc2cc(Nc3ncccc3C(C)(C)O)ncn2)nc(C)n1` [Example 172, 2-[2-[[6-[(2,6-dimethylpyrimidin-4-yl)amino]pyrimidin-4-yl]amino]pyridin-3-yl]propan-2-ol], the pKd in assay [1] is 9.00 to 9.70. Moreover, in assay [2] (Homo sapiens, HEK293), the pIC50 was 6.00 to 7.00.
As to `COc1cc(-c2cnn(C)c2C)c(C)nc1Nc1cc(Nc2cc(C)ncn2)ncn1` [Example 176, N6-[5-(1,5-dimethylpyrazol-4-yl)-3-methoxy-6-methyl-2-pyridyl]-N4-(6-methylpyrimidin-4-yl)pyrimidine-4,6-diamine], the pKd in assay [1] is 9.00 to 9.70. The pIC50 in assay [2] (Homo sapiens, HEK293) was 7.00 to 8.00.
As to “N4-(2,6-dimethylpyrimidin-4-yl)-N6-(3-methoxy-5-tetrahydropyran-2-yl-2-pyridyl)pyrimidine-4,6-diamine [Example 166]”, the pKd in assay [1] was 8.00 to 9.00. Moreover, in assay [2], the pIC50 is 6.00 to 7.00.
The matching figures for “N4-(2,6-dimethylpyrimidin-4-yl)-N6-[2-ethoxy-3-(1-methyl-1,2,4-triazol-3-yl)phenyl]pyrimidine-4,6-diamine [Example 45]”: 9.00 to 9.70 and 6.00 to 7.00.
The matching figures for “N4-(2,6-dimethylpyrimidin-4-yl)-N6-[4-(3-methylimidazol-4-yl)-2-methylsulfonyl-phenyl]pyrimidine-4,6-diamine [Example 26]”: 9.00 to 9.70 and 6.00 to 7.00.
In the same order, the values of “N-[5-(1,5-dimethylpyrazol-4-yl)-2-[[6-[(2,6-dimethylpyrimidin-4-yl)amino]pyrimidin-4-yl]amino]-3-pyridyl]-N-(trideuteriomethyl)methanesulfonamide [Example 133]” are over 9.70 and over 8.00.
